Results on 1 compound are retold here after publication PMC6832134, “Discovery of Novel Integrase Inhibitors Acting outside the Active Site Through High-Throughput Screening” (Molecules, 2019).

In data set [1] the target is T1, HIV-1 IN (WT) (Human immunodeficiency virus type 1 group M subtype B, UniProt P12497).
T1 construct: 250 nM of recombinant HIV-1 integrase; made in house; host or cells: E. coli RosettaII
Kind of data set: Gel-based IN strand transfer assay, WT enzyme. It counts as biochemical. Here is the method: (§1) IN reactions were carried out by adding drugs or an equivalent volume of 100% DMSO (dimethyl sulfoxide, used as the drug solvent) to a mixture of 20 nM duplex DNA (21T/21B) and 400 nM IN in 50 mM MOPS pH 7.2, 7.5 mM MgCl2, and 14 mM 2-mercaptoethanol. Reactions were performed at 37 °C for 2 h and quenched by addition of an equal volume of loading buffer [formamide containing 1% SDS (sodium dodecyl sulfate), 0.25% bromophenol blue, and xylene cyanol]. Reaction products were separated in 16% polyacrylamide denaturing sequencing gels. Dried gels were visualized using a Typhoon 8600 (GE Healthcare, Piscataway, NJ, USA). Densitometric analyses were performed using the ImageQuant 5.1 software from GE Healthcare. Data analyses (linear regression, IC50 determination, and standard deviation) were performed using Prism 6.05 software from GraphPad.

For data set [2], the target named is T2, HIV-1 IN mutant N155H (Human immunodeficiency virus type 1 group M subtype B, UniProt P12497, N1302H).
T2 construct: RAL-resistant HIV-1 mutant integrases; made in house; host or cells: E. coli RosettaII
As to the kind of experiment: biochemical. It counts as biochemical. The procedure: as §1

The target of data set [3] is T3, isolated catalytic core domain (CCD) of IN (Human immunodeficiency virus type 1 group M subtype B, UniProt P12497).
T3 construct: the isolated catalytic core domain (CCD) (51–212); made in house; host or cells: E. coli RosettaII
As to the kind of experiment: Disintegration reaction, isolated catalytic core domain. Particulars: branched substrate. The format is biochemical, HIV-1. The source says: Conventional IN strand transfer inhibitors bind at the interface created by the protein, viral DNA, and two magnesium cations in the catalytic site of the enzyme. Because stilbene disulfonic acid derivatives inhibit both 3′-P and ST with a similar efficiency, they may act outside the IN catalytic site. To determine if IN domains other than the catalytic core domain (CCD) are involved in the inhibitory activity of NSC34931, we tested this compound on disintegration, the only IN-mediated reaction that can be catalyzed by the isolated CCD. Disintegration is equivalent to a reverse-ST reaction (Figure 3A). Using a branched substrate, the WT enzyme as well as the isolated CCD catalyzed disintegration with similar efficiency (Figure 3B). NSC34931 inhibited disintegration catalyzed by the full-length IN at concentrations above 4.1 µM (Figure 3B,C). However, NSC34931 was unable to inhibit disintegration catalyzed by the CCD at concentrations up to 37 µM (Figure 3B,C). These experiments indicate that the N-terminal domain (NTD) and/or the C-terminal domain (CTD) are essential for IN inhibition by NSC34931.
Figure 3 Inhibition of the disintegration reaction by NSC34931. (A) Schematic representation of the disintegration reaction. […]

In data set [4] the target is T4, isolated catalytic core domain (CCD) (51–212) (Human immunodeficiency virus type 1 group M subtype B, UniProt P12497).
T4 construct: the isolated catalytic core domain (CCD) (51–212); made in house; host or cells: E. coli RosettaII
Kind of data set: Schiff base IN-DNA crosslinking assay, isolated CCD. It counts as binding, HIV-1. The text has this:
To gain further evidence that NSC34931 interferes with DNA binding, and to determine the role of outer domains in this inhibition, we evaluated the ability of NSC34931 to inhibit the formation of IN-DNA crosslinks using our previously described Schiff base assay. Briefly, a deoxyuracyl nucleotide is incorporated in the DNA substrate to generate an abasic site via uracyl DNA glycosylase. IN forms a covalent complex (Schiff base), which can be stabilized by reduction with sodium borohydride (Figure 5A). Full-length IN, but also the isolated CCD or CTD domains, can crosslink DNA ([…]). Consistent with anisotropy data, NSC34931 suppresses the formation of IN-DNA crosslinks in the context of the full-length IN (Figure 5B, upper gel). Of note, the effective dose to inhibit this reaction is similar to that needed to inhibit 3′-P or ST (about 0.45 µM). In contrast, the IN CCD requires a 10 times higher concentration of compound to prevent DNA crosslinking, confirming that the NTD or the CTD are important for NSC34931 inhibition. Lastly, the same experiment was conducted with the isolated CTD (Figure 5B, lower gel).
Figure 5 Inhibition of IN-DNA binding by NSC34931. (A) Principle of the Schiff base crosslinking assay. An abasic site was introduced by uracil DNA glycosylase in the DNA substrate at the -12 position. […]

The target of data set [5] is T5, HIV-1 IN (Human immunodeficiency virus type 1 group M subtype B, UniProt P12497).
T5 construct: 250 nM of recombinant HIV-1 integrase; made in house; host or cells: E. coli RosettaII
Kind of data set: Synergy test with the active site inhibitor MK-2048. It counts as biochemical. Particulars: subinhibitory dose of stilbene disulfonic acid derivative; IC50 of MK-2048 not affected; data not shown.

Data set [6] in a line: in vitro. Particulars: human.

Like-named read-outs stand apart in the source and are kept apart here. Some results are limits rather than exact numbers.

For the compound `O=S(=O)(O)c1cc(/N=N/c2cc(S(=O)(=O)O)c3ccccc3c2O)ccc1/C=C/c1ccc(/N=N/c2cc(S(=O)(=O)O)c3ccccc3c2O)cc1S(=O)(=O)O` [NSC34931], in data set [1] (data not shown), the “activity with Mg2+ or Mn2+ as metal cofactor” value is “equally active”. In addition, the IC50 in data set [1] (gel-based assay, coupled ST, at least three independent experiments, read-out: In Vitro IC50 +/−SD, ST) worked out at 0.18 ± 0.07 µM; in data set [1] (precleaved substrate (bypassing the 3'-P step), data not shown, read-out: IC50, ST inhibition with precleaved substrate), 0.23 µM; in data set [2], 0.16 µM. The “concentration up to which disintegration is not inhibited” value in data set [3] was > 37 µM. Also, the “fold higher concentration required to prevent DNA crosslinking vs full-length IN” value in data set [4] stood at 10. Further, in data set [5], the “synergy with active site inhibitor MK-2048” value is “could not see any cooperative effect”. Besides, the CC50 in data set [6] came to 59 µM.
